From EP0500835B1, “A NOVEL QUINOLONE CARBOXYLIC ACID DERIVATIVE” (DAEWOONG PHARMACEUTICAL CO., LTD., priority 1990, dated 1992)
Converted amounts (≈) assume the structure as drawn.

Columns and labels:
Test in all cases: In vitro antibacterial activity, MIC by agar dilution method
Assay type in all cases: cell-based
S. pyogenes A 77 = details: Streptococcus pyogenes, A77, read-out: In vitro Antibacterial Activity, MIC
Description: (§1) The typical examples of the present compounds were tested for antimicrobial activity in vitro against twenty strains of Gram-positive and Gram-negative microorganisms.
(§2) The numerals in the table 1 show minimum inhibitory concentrations(MIC in µg/ml). The minimum inhibitory concentrations were determined according to the agar dilution method recommended by Japan Society of Chemotherapy[Chemotherapy., 29, 76 (1981)].

E. coli 1507E = details: Escherichia coli, 1507E, read-out: In vitro Antibacterial Activity, MIC
Description: as §1, §2

P. aeruginosa 1771 = details: Pseudomonas aeruginosa, 1771, read-out: In vitro Antibacterial Activity, MIC
Description: as §1, §2

P. aeruginosa 1592E = details: Pseudomonas aeruginosa, 1592E, read-out: In vitro Antibacterial Activity, MIC
Description: as §1, §2

P. aeruginosa 9027 = details: Pseudomonas aeruginosa, 9027, read-out: In vitro Antibacterial Activity, MIC
Description: as §1, §2

S. aureus SG 511 = details: Staphylococcus aureus, SG511, read-out: In vitro Antibacterial Activity, MIC
Description: as §1, §2

E. coli DC 0 = details: Escherichia coli, DC0, read-out: In vitro Antibacterial Activity, MIC
Description: as §1, §2

E. coli TEM = details: Escherichia coli, read-out: In vitro Antibacterial Activity, MIC
Description: as §1, §2

S. pyogenes A 308 = details: Streptococcus pyogenes, A308, read-out: In vitro Antibacterial Activity, MIC
Description: as §1, §2

P. aeruginosa 1771M = details: Pseudomonas aeruginosa, 1771M, read-out: In vitro Antibacterial Activity, MIC
Description: as §1, §2

E. coli DC 2 = details: Escherichia coli, DC2, read-out: In vitro Antibacterial Activity, MIC
Description: as §1, §2

S. aureus 503 = details: Staphylococcus aureus, 503, read-out: In vitro Antibacterial Activity, MIC
Description: as §1, §2

S. faecium MD 86 = details: Enterococcus faecium, MD86, read-out: In vitro Antibacterial Activity, MIC
Description: as §1, §2

K. oxytoca 1082E = details: Klebsiella oxytoca, 1082E, read-out: In vitro Antibacterial Activity, MIC
Description: as §1, §2

S. aureus 285 = details: Staphylococcus aureus, 285, read-out: In vitro Antibacterial Activity, MIC
Description: as §1, §2

E. coli O 55 = details: Escherichia coli, O55, read-out: In vitro Antibacterial Activity, MIC
Description: as §1
(§3) The minimum inhibitory concentrations were determined according to the agar dilution method recommended by Japan Society of Chemotherapy[Chemotherapy., 29, 76 (1981)].

E. cloacae P99 = details: Enterobacter cloacae, P99, read-out: In vitro Antibacterial Activity, MIC
Description: as §1, §3

S. typhimurium = details: Salmonella enterica, TYPHIMURIUM, read-out: In vitro Antibacterial Activity, MIC
Description: as §1, §3

K. aerogenes 1522E = details: Klebsiella aerogenes, 1522E, read-out: In vitro Antibacterial Activity, MIC
Description: as §1, §3

E. cloacae 1321E = details: Enterobacter cloacae, 1321E, read-out: In vitro Antibacterial Activity, MIC
Description: as §1, §3

Structure (SMILES) | MIC (S. pyogenes A 77) | MIC (E. coli 1507E) | MIC (P. aeruginosa 1771) | MIC (P. aeruginosa 1592E) | MIC (P. aeruginosa 9027) | MIC (S. aureus SG 511) | MIC (E. coli DC 0) | MIC (E. coli TEM) | MIC (S. pyogenes A 308) | MIC (P. aeruginosa 1771M) | MIC (E. coli DC 2) | MIC (S. aureus 503) | MIC (S. faecium MD 86) | MIC (K. oxytoca 1082E) | MIC (S. aureus 285) | MIC (E. coli O 55) | MIC (E. cloacae P99) | MIC (S. typhimurium) | MIC (K. aerogenes 1522E) | MIC (E. cloacae 1321E)
CSCC1CCN(c2c(F)c(F)c3c(=O)c(C(=O)O)cn(C4CC4)c3c2F)C1 (stereo not shown) [Example 3, 1-cyclpropyl-5,6,8-trifluoro-7-(3-methylthiomethylpyrrolidinyl)-1,4-dihydro-4-oxo-3-quinolinecarboxylic acid] | 1.56 µg/mL (≈ 3.79 µM) | 3.12 µg/mL (≈ 7.58 µM) | 1.56 µg/mL (≈ 3.79 µM) | 3.12 µg/mL (≈ 7.58 µM) | 3.12 µg/mL (≈ 7.58 µM) | 0.008 µg/mL (≈ 0.0194 µM) | 6.25 µg/mL (≈ 15.2 µM) | 3.12 µg/mL (≈ 7.58 µM) | 0.781 µg/mL (≈ 1.89 µM) | 1.56 µg/mL (≈ 3.79 µM) | 3.12 µg/mL (≈ 7.58 µM) | 0.007 µg/mL (≈ 0.017 µM) | 0.781 µg/mL (≈ 1.89 µM) | 0.098 µg/mL (≈ 0.238 µM) | 0.013 µg/mL (≈ 0.0315 µM) | 0.195 µg/mL (≈ 0.473 µM) | 0.391 µg/mL (≈ 0.948 µM) | 0.391 µg/mL (≈ 0.948 µM) | 0.781 µg/mL (≈ 1.89 µM) | 0.391 µg/mL (≈ 0.948 µM)
CSCC1CCN(c2c(F)c(N)c3c(=O)c(C(=O)O)cn(C4CC4)c3c2F)C1 (stereo not shown) [Example 9, 1-cyclopropyl-5-amino-6,8-difluoro-7-(3-methylthiomethylpyrrolidinyl)-1,4-dihydro-4-oxo-3-quinolinecarboxylic acid] | 0.391 µg/mL (≈ 0.955 µM) | 0.025 µg/mL (≈ 0.0611 µM) | 1.56 µg/mL (≈ 3.82 µM) | 3.12 µg/mL (≈ 7.63 µM) | 3.12 µg/mL (≈ 7.63 µM) | 0.004 µg/mL (≈ 0.00977 µM) | 3.12 µg/mL (≈ 7.63 µM) | 0.025 µg/mL (≈ 0.0611 µM) | 0.195 µg/mL (≈ 0.476 µM) | 0.781 µg/mL (≈ 1.91 µM) | 0.195 µg/mL (≈ 0.476 µM) | 0.007 µg/mL (≈ 0.0171 µM) | 1.2 µg/mL (≈ 2.92 µM) | 1.56 µg/mL (≈ 3.82 µM) | 0.025 µg/mL (≈ 0.0611 µM) | 0.013 µg/mL (≈ 0.0317 µM) | 0.049 µg/mL (≈ 0.12 µM) | 0.049 µg/mL (≈ 0.12 µM) | 3.12 µg/mL (≈ 7.63 µM) | 0.049 µg/mL (≈ 0.12 µM)
